These results are taken from US9492508B2, “Parathyroid hormone analogs and uses thereof” (The General Hospital Corporation, priority 2010, dated 2016).

The conditions of series [1]: rat, in vivo, iv, 24.3 nmol/kg.
The next series deals with MC3T3-E1 cells. As to the kind of experiment: cAMP response following ligand wash-out in MC3T3-E1 cells. To be noted: 100 nM ligand 5 min, then wash-out; FIGS. 7A, 7B. It counts as cell-based, mouse. As for the experimental part: Cells were treated at room temperature with vehicle or the indicated ligand (100 nM) for five minutes; for each ligand duplicate wells were used to obtain the initial (maximum cAMP values); in these wells, cells were co-incubated with ligand and IBMX. After five minutes of initial treatment, the buffer was removed, and, for the initial wells, the reactions were terminated by addition of 50 mM HCl. In the other wells, the cells were rinsed three times with buffer, and incubated in buffer for varying times, as indicated on the abscissa; after which the buffer was replaced by a buffer containing IBMX, and the cells were incubated for another five minutes. After that, the buffer was removed and the reactions were terminated by addition of 50 mM HCl. The cAMP contents of the HCl lysates were then determined by RIA.

A further series has as its target T1, PD PTH receptor (Mus musculus, UniProt P41593, S489A/S491A/S492A/S493A/S495A/S501A/S504A).
T1 construct: endogenous in cells; host or cells: knock-in mice (in vivo)
T1 sequence (P41593 27-591 S489A/S491A/S492A/S493A/S495A/S501A/S504A): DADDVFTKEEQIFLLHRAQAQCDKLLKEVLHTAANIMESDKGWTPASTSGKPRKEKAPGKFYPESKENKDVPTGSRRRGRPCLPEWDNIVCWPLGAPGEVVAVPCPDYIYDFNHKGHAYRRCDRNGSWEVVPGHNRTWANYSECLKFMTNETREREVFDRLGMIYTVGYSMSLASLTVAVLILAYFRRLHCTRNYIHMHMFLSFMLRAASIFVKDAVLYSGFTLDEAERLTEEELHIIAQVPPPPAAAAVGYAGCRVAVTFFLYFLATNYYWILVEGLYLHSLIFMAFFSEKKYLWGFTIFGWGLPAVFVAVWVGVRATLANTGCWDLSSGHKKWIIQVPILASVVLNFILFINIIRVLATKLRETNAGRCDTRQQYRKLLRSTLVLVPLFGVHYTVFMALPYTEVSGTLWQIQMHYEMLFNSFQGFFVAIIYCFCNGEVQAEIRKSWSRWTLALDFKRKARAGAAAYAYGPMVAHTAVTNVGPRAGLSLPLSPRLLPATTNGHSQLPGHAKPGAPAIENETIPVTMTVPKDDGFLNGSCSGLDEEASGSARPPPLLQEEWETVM
As to the kind of experiment: Blood calcium and cAMP in knock-in mice with phosphorylation-deficient (PD) PTH receptor vs wild-type. It counts as in vivo. Conditions: FIG. 19. As for the experimental part: The activity of SP-PTH-AAK (SEQ ID NO:4) was tested in “knock-in” mice that express a PD PTH receptor in place of the wild-type PTH receptor (Bounoutas et al., Endocrinology 147: 4674, 2006).
Blood cAMP levels were also compared between the two types of mice.

Another series has as its target T2, rat PTHR1 (RG) (Rattus norvegicus, UniProt P25961).
T2 construct: expressed in transfected cells
T2 sequence (P25961 27-591): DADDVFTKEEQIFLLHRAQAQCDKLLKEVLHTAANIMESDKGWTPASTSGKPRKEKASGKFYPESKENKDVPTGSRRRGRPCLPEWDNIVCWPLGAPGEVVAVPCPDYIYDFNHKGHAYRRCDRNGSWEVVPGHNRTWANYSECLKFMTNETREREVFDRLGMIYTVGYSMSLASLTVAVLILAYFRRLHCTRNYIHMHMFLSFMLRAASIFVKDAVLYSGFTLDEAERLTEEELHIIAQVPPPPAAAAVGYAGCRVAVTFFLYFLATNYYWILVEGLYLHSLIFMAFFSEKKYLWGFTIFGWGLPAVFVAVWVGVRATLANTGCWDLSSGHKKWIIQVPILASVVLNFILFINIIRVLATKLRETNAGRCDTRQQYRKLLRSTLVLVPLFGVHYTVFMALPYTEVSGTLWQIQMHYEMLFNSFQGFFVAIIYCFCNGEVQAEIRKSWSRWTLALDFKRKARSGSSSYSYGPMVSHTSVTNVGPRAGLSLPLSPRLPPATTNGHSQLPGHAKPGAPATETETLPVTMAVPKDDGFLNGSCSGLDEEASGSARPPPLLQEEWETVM
As to the kind of experiment: Competition binding, RG conformation of rat PTHR1. The source says: Briefly, the R^0 form of the receptor can be favored by addition of the non-hydrolyzable nucleotide analog GTPγS. The RG form can be favored, for example, by co-transfection of cells with a negative dominant Gαs subunit. […] Data are means of four experiments, each performed in duplicate. Curves were fit to the data using Graph-Pad Prism 4.0.

Another series can be described thus: in vivo. Conditions: rat, iv, 24.3 nmol/kg.
The nature of series [2]: Stability in phosphate-citrate buffers and 10 mM acetic acid, reverse-phase HPLC. To be noted: 4 weeks. In kind it is physicochemical. As for the experimental part: The amount of intact SP-PTH-AAK (SEQ ID NO:4) peptide remaining in the sample, as compared to the starting sample, was measured by rPHPLC.
Stability testing of SP-PTH-AAK (SEQ ID NO:4) was also performed. SP-PTH-AAK (SEQ ID NO:4) was stored at different peptide concentrations in 50 mM phosphate-citrate (PC) buffer (pH 4.0, 4.5, and 5.5) and 10 mM acetic acid at 5, 25, and 40° C. for 4 weeks.

Series [3] in a line: Plasma concentration in cynomolgus monkey after intravenous injection. It counts as in vivo. To be noted: male, 1 nmol/kg intravenous. As to the method: FIG. 11B is a graph showing plasma concentration of SP-PTH (SEQ ID NO:11) in monkey following intravenous injection of 1 nmol/kg.
The effects of the SP-PTH (SEQ ID NO:11) and SP-PTH-AAK (SEQ ID NO:4) (“SP-AAK”) on serum and urinary calcium and phosphate levels were tested in cynomolgus monkeys. Briefly, three- or four-year-old, male cynomolgus monkeys (HAMRI Co., Ltd., Ibaraki, Japan) were measured for their body weight. Blood was collected into tubes. Monkeys received intravenous or subcutaneous administration of each polypeptide at a dose of 0.3 ml/kg. Polypeptide concentrations in stock solution were adjusted by dilution with 25 mmol/L phosphate-citrate buffer/100 mmol/L NaCl/0.05% Tween 80 (pH.5.0) (PC-buffer). All polypeptides were allowed to stand on ice immediately before administration. Polypeptides were administered to groups of three monkeys each respectively. At 1, 2, 4, and 8 hours after administration, blood was collected by saphenous vein to monitor the time course of calcium and phosphorus levels (FIG. 11A).

Entries after “also recorded” stand apart in the source; their conditions may differ. Ends that are not written are not given here.

Substance “AVAEIQLMHQRAKWIQDARRRAFLHKLIAEIHTAEI-OH [SP-PTH-AAK, [Ala^1,3,12,18,22,Gln^10,Arg^11,Trp^14,Lys^26]PTH(1-14)/PTHrP(15-36)]” returned an AUCinf in series [1] of 1131 pmol·min/mL. In addition, in the series on MC3T3-E1 cells, the “cAMP-stimulating activity after ligand wash-out” value was “maintained cAMP-stimulating activity for longer periods of time than PTH(1-34)”. Also, the “blood calcium level in PD mice” value on PD PTH receptor is “reduced blood calcium level for at least six hours after injection”. Besides, at rat PTHR1 (RG) (FIG. 1B), the “binding to RG form of rat PTHR1, comparison in words” value was “strongest binding; also recorded: increased”. Moreover, the 50% inhibitory concentration (IC50) on rat PTHR1 (RG) (RG conformation, read-out: Binding rat PTHR1 IC50 nM RG (converted)) was 0.1 nM. In the series “in vivo” (Crl:CD(SD)), this substance gave an MRT of 5.83 min, a Vd of 0.126 L/kg, a clearance of 1.3 L/h/kg and a half-life of 7.27 min. In “in vivo”, this substance gave an AUC(0-t) of 18.7 nM·h. The “stability, intact peptide by reverse-phase HPLC at 25° C.” value in series [2] (50 mM PC buffer pH 4.0, 4.5, 5.5 and 10 mM acetic acid, 25° C.) is “near full stability”. Also, in series [2] (40° C.), the “stability at 40° C., HPLC finding” value is given as “a degraded product, likely a methionine-oxide derivative, was detected”.

For “AVAEIQLMHQRAKWIQDLRRRFFLHHLIAEIHTAEI-OH [SP-PTH, [Ala^1,3,12,Gln^10,Arg^11,Trp^14]PTH(1-14)/PTHrP(15-36)]”, in series [3], the half-life is about 4 min. In addition, in the series on MC3T3-E1 cells, the “cAMP-stimulating activity after ligand wash-out” value is recorded as “maintained cAMP-stimulating activity for longer periods of time than PTH(1-34)”.

A word on the IC50: it is the midpoint of a concentration-inhibition curve. As usually defined, the MRT is a mean duration of stay, worked out from the concentration-time curve. Broadly, the Vd is a proportionality between amount in the body and measured concentration, not a real space. A word on the clearance: it is the volume of plasma or blood freed of the substance per unit of time. A word on the half-life: it is how long it takes for the measured level to halve. Broadly, the AUC(0-t) is exposure summed from dosing to a finite time, without extrapolation to infinity.
